The test system of experiment [1] is HCV replicon I389luc-ubi-neo/NS3-3′/ET in ET (Huh-lucubineo-ET) cells. The experiment is described as follows: Replicon assay (Biological Example 2), luciferase readout. In kind it is cell-based. The conditions noted are these: Hepatitis C virus. The procedure:
A cell line, ET (Huh-lucubineo-ET) was used for screening of compounds for inhibiting HCV RNA dependent RNA polymerase. The ET cell line was stably transfected with RNA transcripts harboring a I389luc-ubi-neo/NS3-3′/ET; replicon with firefly luciferase-ubiquitin-neomycin phosphotransferase fusion protein and EMCV-IRES driven NS3-5B polyprotein containing the cell culture adaptive mutations (E1202G; T12801; K1846T) (Krieger at al, 2001 and unpublished). The ET cells were grown in DMEM (Dulbeco's Modified Eagle's Medium), supplemented with 10% fetal calf serum, 2 mM Glutamine, Penicillin (100 IU/mL)/Streptomycin (100 μg/mL), 1× nonessential amino acids, and 250 μg/mL G418 (“Geneticin”). Reagents were all available through Life Technologies (Bethesda, Md.). The cells were plated at 0.5-1.0×10^4 cells/well in the 96 well plates and incubated for 24 hrs before adding test compound. The compounds were added to the cells to achieve a final concentration of 0.1 nM to 50 μM and a final DMSO (dimethylsulfoxide) concentration of 0.5%. Luciferase activity was measured 48 hours later by adding a lysis buffer and the substrate (Catalog number Glo-lysis buffer E2661 and Bright-Glo luciferase system E2620 Promega, Madison, Wis.). Cells should not be too confluent during the assay. Percent inhibition of replication data was plotted relative to no compound control. To determine the EC50 (effective concentration at which 50% of the maximum inhibition was observed), a 10 point, 3-fold serial dilution for each compound was used, which spans a concentration range of […]. EC50 values were calculated by fitting % inhibition at each concentration to the following equation: % inhibition=100%/[(EC50/[I])^b+1] where b was Hill's coefficient.
In other aspects the EC50 was equal to or less than 10 μM. In still other aspects the EC50 was equal to or less than 1 μM.
Background: In antiviral work, replicon cells carry a viral genome segment that copies itself.

Another experiment deals with T1, HCV polymerase (Hepatitis C virus genotype 1b, UniProt Q9WMX2).
T1 construct: (His)6 (C); made in house; host or cells: XL-1 cells (E. coli, by own knowledge)
The experiment is described as follows: Polymerase assay of Biological Example 1 (IC50 values of Table 3). It is filed as biochemical. The conditions noted are these: IC50 values of Table 3, polymerase assay of Biological Example 1; read-out: NS5B-enzyme3. From the text: A number of assays have been published to assess these activities. A general method that assesses the gross increase of HCV virus in culture was disclosed in U.S. Pat. No. 5,738,985 to Miles et al. In vitro assays have been reported in Ferrari et al. Jnl. of Vir., 73:1649-1654, 1999; Ishii et al., Hepatology, 29:1227-1235, 1999; Lohmann et al., Jnl of Bio. Chem., 274:10807-10815, 1999; and Yamashita et al., Jnl. of Bio. Chem., 273:15479-15486, 1998.
WO 97/12033, filed on Sep. 27, 1996, by Emory University, listing C. Hagedorn and A. Reinoldus as inventors, which claims priority to U.S. Provisional Patent Application Ser. No. 60/004,383, filed on September 1995, described an HCV polymerase assay that can be used to evaluate the activity of the of the compounds described herein. Another HCV polymerase assay has been reported by Bartholomeusz, et al., Hepatitis C Virus (HCV) RNA polymerase assay using cloned HCV non-structural proteins; Antiviral Therapy 1996:1 (Supp 4) 18-24.

Setting [2] is: ET cells, luciferase activity 48 hours after compound.

pIC50: −log10 of the molar value.

`O=C(O)c1sc(-c2ccccc2)cc1N1C(=O)CCC1C1CCCCC1` (stereo not drawn) [Compound 1, 3-(2-Cyclohexyl-5-oxo-pyrrolidin-1-yl)-5-phenyl-thiophene-2-carboxylic acid]: the pIC50 is 5.30 to 7.00 in experiment [1] (between 100 nM and 5.0 uM); 6.74 on HCV polymerase.

As to `O=C(O)c1sc(-c2ccccc2)cc1N1C(=O)CCCC1C1CCCCC1` (stereo not drawn) [Compound 4, 3-(2-Cyclohexyl-6-oxo-piperidin-1-yl)-5-phenyl-thiophene-2-carboxylic acid], the pIC50 in experiment [1] (between 100 nM and 5.0 uM) is 5.30 to 7.00; on HCV polymerase, 7.14.

Consider `Cc1ccc(-c2cc(N3C(=O)C(C)(O)CCC3C3CCCCC3)c(C(=O)O)s2)cc1` (stereo not drawn) [Compound 5, 3-(6-Cyclohexyl-3-hydroxy-3-methyl-2-oxo-piperidin-1-yl)-5-p-tolyl-thiophene-2-carboxylic acid], for which the figures for the pIC50 (in experiment [1] (setting [2]); at HCV polymerase) were at least 7.00 and 7.28, respectively.

With `CC(C)(C)C#Cc1cc(N2C(=O)[C@](C)(CCCO)OC[C@H]2C2CCCCC2)c(C(=O)O)s1` [Compound 7, 3-[(2S,5R)-5-Cyclohexyl-2-(3-hydroxy-propyl)-2-methyl-3-oxo-morpholin-4-yl]-5-(3,3-dimethyl-but-1-ynyl)-thiophene-2-carboxylic acid], the pIC50 was at least 7.00 in experiment [1] (setting [2]) and 8.22 on HCV polymerase.

As for `CC(C)(C)C#Cc1cc(N2C(=O)[C@@H](CCO)OC[C@H]2C2CCCCC2)c(C(=O)O)s1` [Compound 8, 3-[(2R,5R)-5-Cyclohexyl-2-(2-hydroxy-ethyl)-3-oxo-morpholin-4-yl]-5-(3,3-dimethyl-but-1-ynyl)-thiophene-2-carboxylic acid], the values for the pIC50 (in experiment [1] (setting [2]); on HCV polymerase) were at least 7.00 and 9.00, respectively.

Regarding `O=C1CC(=O)N(c2cc(-c3ccccc3)sc2C(=O)O)C(C2CCCCC2)C1` (stereo not drawn) [Compound 9, 3-(2-Cyclohexyl-4,6-dioxo-piperidin-1-yl)-5-phenyl-thiophene-2-carboxylic acid], the figures for the pIC50 (in experiment [1] (setting [2]); at HCV polymerase) were at most 5.30 and 7.10, respectively.

Regarding `CC(C)(C)C#Cc1cc(N2C(=O)[C@@H](CC(O)CO)OC[C@H]2C2CCCCC2)c(C(=O)O)s1` (stereo partly drawn) [Compound 10, 3-[(2R,5R)-5-Cyclohexyl-2-(2,3-dihydroxy-propyl)-3-oxo-morpholin-4-yl]-5-(3,3-dimethyl-but-1-ynyl)-thiophene-2-carboxylic acid], the figures for the pIC50 (in experiment [1] (setting [2]); on HCV polymerase) were at least 7.00 and 8.52, respectively.

As to `CC(C)(C)C#Cc1cc(N2C(=O)C(O)(CCCO)CCC2C2CCCCC2)c(C(=O)O)s1` (stereo not drawn) [Compound 11, 3-[6-Cyclohexyl-3-hydroxy-3-(3-hydroxy-propyl)-2-oxo-piperidin-1-yl]-5-(3,3-dimethyl-but-1-ynyl)-thiophene-2-carboxylic acid], the pIC50 was at least 7.00 in experiment [1] (setting [2]) and 8.10 at HCV polymerase.

Consider `O=C(O)c1sc(-c2ccccc2)cc1N1C(=O)CC(O)CC1C1CCCCC1` (stereo not drawn) [Compound 12], for which the pIC50 in experiment [1] (between 100 nM and 5.0 uM) is 5.30 to 7.00; at HCV polymerase it was 7.35.

On to `O=C(O)c1sc(-c2ccccc2)cc1N1C(=O)COCC1C1CCCCC1` (stereo not drawn) [Compound 13, 3-(3-Cyclohexyl-5-oxo-morphoIin-4-yl)-5-phenyl-thiophene-2-carboxylic acid], for which the pIC50 in experiment [1] (between 100 nM and 5.0 uM) was 5.30 to 7.00; at HCV polymerase it was 7.10.

In the case of `O=C(O)c1sc(-c2ccccc2)cc1N1C(=O)CNC[C@H]1C1CCCCC1` [Compound 15, 3-((R)-2-Cyclohexyl-6-oxo-piperazin-1-yl)-5-phenyl-thiophene-2-carboxylic acid], the pIC50 in experiment [1] (setting [2]) was at most 5.30; on HCV polymerase, 7.13.

As to `O=C(O)c1sc(-c2ccccc2)cc1N1C(=O)CN(C(=O)c2ccccc2)C[C@H]1C1CCCCC1` [Compound 16, 3-((R)-4-Benzoyl-2-cyclohexyl-6-oxo-piperazin-1-yl)-5-phenyl-thiophene-2-carboxylic acid], the pIC50 was at most 5.30 in experiment [1] (setting [2]) and 6.38 on HCV polymerase.

Turning to `O=C(O)c1sc(-c2ccccc2)cc1N1C(=O)CN(Cc2ccccc2)C[C@H]1C1CCCCC1` [Compound 17, 3-((R)-4-Benzyl-2-cyclohexyl-6-oxo-piperazin-1-yl)-5-phenyl-thiophene-2-carboxylic acid], the pIC50 in experiment [1] (between 100 nM and 5.0 uM) was 5.30 to 7.00; at HCV polymerase it was 7.62.

Regarding `Cc1ccc(S(=O)(=O)N2CC(=O)N(c3cc(-c4ccccc4)sc3C(=O)O)[C@H](C3CCCCC3)C2)cc1` [Compound 18, 3-[(R)-2-Cyclohexyl-6-oxo-4-(toluene-4-sulfonyl)-piperazin-1-yl]-5-phenyl-thiophene-2-carboxylic acid], the pIC50 in experiment [1] (between 100 nM and 5.0 uM) was 5.30 to 7.00; on HCV polymerase it was 8.70.

Consider `CC(C)(C)C#Cc1cc(N2C(=O)CCCC2C2CCCCC2)c(C(=O)O)s1` (stereo not drawn) [Compound 19, 3-(2-Cyclohexyl-6-oxo-piperidin-1-yl)-5-(3,3-dimethyl-but-1-ynyl)-thiophene-2-carboxylic acid], for which the pIC50 in experiment [1] (setting [2]) is at least 7.00; at HCV polymerase, 7.82.

As for `O=C(Cc1ccccc1)NC1CC(=O)N(c2cc(-c3ccccc3)sc2C(=O)O)C(C2CCCCC2)C1` (stereo not drawn) [Compound 20, 3-(2-Cyclohexyl-6-oxo-4-phenylacetylamino-piperidin-1-yl)-5-phenyl-thiophene-2-carboxylic acid], the results for the pIC50 (in experiment [1] (setting [2]); at HCV polymerase) were at most 5.30 and 6.89, respectively.

On to `O=C(COc1ccccc1)N[C@@H]1CC(=O)N(c2cc(-c3ccccc3)sc2C(=O)O)[C@@H](C2CCCCC2)C1` [Compound 22, 3-[(2R,4S)-2-Cyclohexyl-6-oxo-4-(2-phenoxy-acetylamino)-piperidin-1-yl]-5-phenyl-thiophene-2-carboxylic acid], for which the pIC50 in experiment [1] (setting [2]) was at most 5.30; on HCV polymerase, 7.70.

As to `N[C@H]1CC(=O)N(c2cc(-c3ccccc3)sc2C(=O)O)[C@@H](C2CCCCC2)C1` [Compound 23, 3-((2R,4R)-4-Amino-2-cyclohexyl-6-oxo-piperidin-1-yl)-5-phenyl-thiophene-2-carboxylic acid], the pIC50 was at most 5.30 in experiment [1] (setting [2]) and 6.61 on HCV polymerase.

For the molecule `O=C(N[C@H]1CC(=O)N(c2cc(-c3ccccc3)sc2C(=O)O)[C@H](C2CCCCC2)C1)c1ccccc1` [Compound 24, 3-((2S,4R)-4-Benzoylamino-2-cyclohexyl-6-oxo-piperidin-1-yl)-5-phenyl-thiophene-2-carboxylic acid], the pIC50 in experiment [1] (between 100 nM and 5.0 uM) was 5.30 to 7.00; at HCV polymerase it was 7.35.

For the molecule `O=C(N[C@H]1CC(=O)N(c2cc(-c3ccccc3)sc2C(=O)O)[C@@H](C2CCCCC2)C1)c1ccccc1` [Compound 25, 3-((2R,4R)-4-Benzoylamino-2-cyclohexyl-6-oxo-piperidin-1-yl)-5-phenyl-thiophene-2-carboxylic acid], the pIC50 is at most 5.30 in experiment [1] (setting [2]) and 6.76 on HCV polymerase.

Regarding `CS(=O)(=O)N1CC(=O)N(c2cc(-c3ccccc3)sc2C(=O)O)C(C2CCCCC2)C1` (stereo not drawn) [Compound 26, 3-(2-Cyclohexyl-4-methanesulfonyl-6-oxo-piperazin-1-yl)-5-phenyl-thiophene-2-carboxylic acid], the pIC50 in experiment [1] (between 100 nM and 5.0 uM) is 5.30 to 7.00; on HCV polymerase it was 7.17.

In the case of `O=C(O)c1sc(-c2ccccc2)cc1N1C(=O)CN(S(=O)(=O)Cc2ccccc2)CC1C1CCCCC1` (stereo not drawn) [Compound 27, 3-(2-Cyclohexyl-6-oxo-4-phenylmethanesulfonyl-piperazin-1-yl)-5-phenyl-thiophene-2-carboxylic acid], the pIC50 in experiment [1] (between 100 nM and 5.0 uM) was 5.30 to 7.00; on HCV polymerase, 7.66.

As for `N[C@H]1CC(=O)N(c2cc(-c3ccccc3)sc2C(=O)O)[C@H](C2CCCCC2)C1` [Compound 28, 3-((2S,4R)-4-Amino-2-cyclohexyl-6-oxo-piperidin-1-yl)-5-phenyl-thiophene-2-carboxylic acid], the pIC50 in experiment [1] (setting [2]) is at most 5.30; at HCV polymerase it was 6.65.

`COc1ccc(S(=O)(=O)N2CC(=O)N(c3cc(-c4ccccc4)sc3C(=O)O)C(C3CCCCC3)C2)cc1C(=O)O` (stereo not drawn) [Compound 29, 3-[4-(3-Carboxy-4-methoxy-benzenesulfonyl)-2-cyclohexyl-6-oxo-piperazin-1-yl]-5-phenyl-thiophene-2-carboxylic acid]: the pIC50 in experiment [1] (between 100 nM and 5.0 uM) was 5.30 to 7.00; on HCV polymerase, 9.00.
